# Test results reported in patent US20170313755A1 (priority 2016, published 2017).
# “Also recorded” adds a separate entry of the source.
# B1: IGF1 (Y^B16L^B17) analog (ligand)
# chain 1: GIVDECCFRSCDLRRLEMYCA
# chain 2: GPETLCGAELVDALYLVCGDRGFYFNKPT
# notes: Two chain analog; also called IGF analog
# Tested on: insulin receptor A (IRA) and insulin receptor B (IRB) isoforms
# Experiment: Insulin receptor phosphorylation assay in receptor transfected HEK293 cells
# Assay type: cell-based, human
# Conditions: agonism
# Experimental: Color development was stopped 5 min later by adding 0.05 ml 1 N HCl. Absorbance at 450 nm was measured on Titertek Multiscan MCC340 (ThermoFisher, Pittsburgh, Pa.). Absorbance vs. peptide concentration dose response curves were plotted and EC50 values were determined by using Origin software (OriginLab, Northampton, Mass.).
# Optical density at 450 nm was graphed as a function of peptide concentration using Origin Pro 9.0 graphing software.
Molecule,agonist (maximal) activity at the insulin receptor isoforms,potency at the insulin receptor isoforms
#6(A1)-Cys-Insulin: B29 modified insulin disulfide-conjugated to 6(A1)Cys ALEEEWAQIQSEVWGRGPSYC (SEQ ID NO: 171),almost no effect upon bioactivity,
#6(A2)-Cys-Insulin: B29 modified insulin disulfide-conjugated to 6(A2)Cys SAEEEWAQIQSEVWGRGSPSYC (SEQ ID NO: 172),restored almost all of the potency and activity,restored almost all of the potency and activity
#6(A3)-Cys-Insulin: B29 modified insulin disulfide-conjugated to 6(A3)Cys SLAEEWAQIQSEVWGRGSPSYC (SEQ ID NO: 173),little effect on maximal activity,shift the potency
#6(I2)-Cys-Insulin: B29 modified insulin disulfide-conjugated to 6(I2)Cys SIEEEWAQIQSEVWGRGSPSYC (SEQ ID NO: 175),"very similar, low maximal activities",
#6(Q2)-Cys-Insulin: B29 modified insulin disulfide-conjugated to 6(Q2)Cys SQEEEWAQIQSEVWGRGSPSYC (SEQ ID NO: 180),without a significant decrease in maximal activity; also recorded: high of maximal activity,shift in potency; also recorded: decrease in potency
#6(V2)-Cys-Insulin: B29 modified insulin disulfide-conjugated to 6(V2)Cys SVEEEWAQIQSEVWGRGSPSYC (SEQ ID NO: 176),slight increase in maximal activity,
#6(dL2)-Cys-Insulin: B29 modified insulin disulfide-conjugated to 6(dL2)Cys SdLEEEWAQIQSEVWGRGSPSYC (SEQ ID NO: 174),low activity,decreased potency
#6(des1-5)-Cys-Insulin: B29 modified insulin disulfide-conjugated to 6(des1-5)Cys WAQIQSEVWGRGSPSYC (SEQ ID NO: 170),full activity,full potency
#Insulin-Cys-4: B29 modified insulin disulfide-conjugated to Cys4 CGSLDESFYDWFERQLG (SEQ ID NO: 166),only a small change in maximal activity,a small decrease in potency
modified insulin: native insulin modified with an NHS ester to carry one additional thiol functional group at the B29 lysine,fully activating the insulin receptor isoforms,slightly reduced potency

# Same assay, conditions: agonism, both receptor isoforms
row,Molecule,maximal activity relative to native insulin
1,#6(F2)-Cys-Insulin: B29 modified insulin disulfide-conjugated to 6(F2)Cys SFEEEWAQIQSEVWGRGSPSYC (SEQ ID NO: 177),~50%
2,#6(W2)-Cys-Insulin: B29 modified insulin disulfide-conjugated to 6(W2)Cys SWEEEWAQIQSEVWGRGSPSYC (SEQ ID NO: 178),approximately 60%
3,#6(Y2)-Cys-Insulin: B29 modified insulin disulfide-conjugated to 6(Y2)Cys SYEEEWAQIQSEVWGRGSPSYC (SEQ ID NO: 179),approximately 70%

# Same assay, conditions: conjugate against native insulin
row,Molecule,antagonism at the insulin receptor isoforms
1,#4-Cys-Insulin: B29 modified insulin disulfide-conjugated to 4Cys GSLDESFYDWFERQLGC (SEQ ID NO: 167),some degree of antagonism

# Tested on: STZ-mice
# Experiment: Blood glucose in STZ diabetic mice after insulin/antagonist peptide conjugates
# Assay type: in vivo
# Conditions: 10 nmol/kg, mice fasted 2 hours
# Experimental: The peptides were tested in STZ-mice, due to their high fasting blood glucose levels.
row,Molecule,blood glucose response versus equivalent dose of native insulin
1,#6(A2)-Cys-Insulin: B29 modified insulin disulfide-conjugated to 6(A2)Cys SAEEEWAQIQSEVWGRGSPSYC (SEQ ID NO: 172),behaved identically to an equivalent dose of native insulin

# Tested on: insulin receptor A (IRA) and insulin receptor B (IRB) isoforms
# Experiment: not given
# Conditions: non-covalent addition (in trans); previous work; cited from earlier work
row,Molecule,antagonism of native insulin by unconjugated peptide (words)
1,SLEEEWAQIQSEVWGRGSPSYC (synthetic insulin receptor antagonist peptide) [#6Cys],incapable of antagonizing native insulin

# Same assay, conditions: non-covalent addition (in trans); previous work; listed as #6-Cys; cited from earlier work
row,Molecule,antagonism of native insulin by unconjugated peptide (words)
1,SLEEEWAQIQSEVWGRGSPSYC (synthetic insulin receptor antagonist peptide) [#6Cys],incapable of antagonism in vitro

# Molecular target: T1, human insulin receptor (human, UniProt P06213 28-1382)
# T1 construct: whole, on cells; Stood in the assay as plasma membrane fragments on wheat germ agglutinin SPA beads, not as whole cells
# Experiment: scintillation proximity competition binding against 125I-insulin, membranes with human insulin receptor
# Conditions: not given
# Experimental: The affinity of each peptide for the insulin or IGF-1 receptor was measured in a competition binding assay utilizing scintillation proximity technology. […] Non-specifically bound (NSB) radioactivity was measured in the wells with a four-fold concentration excess of “cold” native ligand than the highest concentration in test samples. Total bound radioactivity was detected in the wells with no competitor. Percent specific binding was calculated as following: % Specific Binding=(Bound-NSB/Total bound-NSB)×100. IC50 values were determined by using Origin software (OriginLab, Northampton, Mass.).
row,Molecule,IC50 [nM]
1,B1,0.51

# Tested on: mice
# Experiment: Comparative insulin tolerance tests on mice (acylated insulin analogs)
# Assay type: in vivo
# Conditions: 27 nmol/kg and 90 nmol/kg; even after 8 hours
# Experimental: The polypeptides were tested at two different concentrations (27 nmol/kg and 90 nmol/kg). The acylated insulins included MIU-41, MIU-36 and MIU-37.
# The compounds were tested at two different concentrations (27 nmol/kg and 90 nmol/kg).
row,Molecule,blood glucose lowering relative to native insulin
1,"[B^1(C16-K0,H5,H10,Y16,L17)26A: A1(N18,N21)] [MIU-36]",more basal and sustained lowered glucose levels
2,"[B^1(H5,H10,Y16,L17)26A: A^1(H8,rEC16-K14,N18,N21)] [MIU-41]",more basal and sustained lowered glucose levels
3,"[B^1(H5,H10,Y16,L17,C16rE-K22)26A: A^1(N18,N21)] [MIU-37]",more basal and sustained lowered glucose levels
